Experiment [1] deals with fui1Δ::PfENT1-HA-CO strain. In words: 5-FUrd growth inhibition of PfENT1-HA-CO expressing fui1Δ yeast. The experiment is classed as cell-based. Particulars: Saccharomyces cerevisiae, read-out: 5-FUrd IC50, yeast cell growth, growth assessed by OD600.
The target of experiment [2] is T1, PfENT1 (Plasmodium falciparum, UniProt Q8IDM6). The experiment in a line: cell-based. The following applies: 125 µM 5-FUrd.
Experiment [3] relates to chloroquine-resistant Dd2 parasites. In words: Dd2 parasite viability / proliferation. It counts as cell-based, Plasmodium falciparum. Particulars: for IC50: Plasmodium falciparum, DD2, read-out: IC50 Dd2 parasite viability – high purine media; for IC50 with xanthine as purine source versus hypoxanthine: WT Dd2, 90 µM xanthine vs 10 µM hypoxanthine as sole purine source.
Experiment [4] deals with T1, PfENT1. It counts as cell-based.
The next experiment relates to P. falciparum 3D7 strain. The experiment in a line: 3D7 parasite viability / proliferation, 72-h growth assay. Particulars: ~10× the IC50 concentration; first 24 h of culture.
For a further experiment, the system named is PfENT4. The experiment in a line: [14C]2-deoxyadenosine uptake into PfENT4-expressing Xenopus oocytes. It counts as cell-based, Plasmodium falciparum. Particulars: concentrations up to 50 µM.
In experiment [5] the target is T1, PfENT1. In words: [3H]adenosine uptake into ade2Δ + PfENT1-CO yeast. The experiment is classed as cell-based.
The target of experiment [6] is T1, PfENT1. The experiment is classed as cell-based. Particulars: each compound at 10 µM; 125 µM 5-FUrd.
Experiment [7] addresses T1, PfENT1. The following applies: cited from earlier work.
[8] abbreviates: EC50 5-FUrd growth rescue of fui1Δ::PfENT1-HA-CO, mean ± SD, N ≥ 3.

Read-outs that look alike come from different tables or passages of the source.

T1 sequence (Q8IDM6 whole entry): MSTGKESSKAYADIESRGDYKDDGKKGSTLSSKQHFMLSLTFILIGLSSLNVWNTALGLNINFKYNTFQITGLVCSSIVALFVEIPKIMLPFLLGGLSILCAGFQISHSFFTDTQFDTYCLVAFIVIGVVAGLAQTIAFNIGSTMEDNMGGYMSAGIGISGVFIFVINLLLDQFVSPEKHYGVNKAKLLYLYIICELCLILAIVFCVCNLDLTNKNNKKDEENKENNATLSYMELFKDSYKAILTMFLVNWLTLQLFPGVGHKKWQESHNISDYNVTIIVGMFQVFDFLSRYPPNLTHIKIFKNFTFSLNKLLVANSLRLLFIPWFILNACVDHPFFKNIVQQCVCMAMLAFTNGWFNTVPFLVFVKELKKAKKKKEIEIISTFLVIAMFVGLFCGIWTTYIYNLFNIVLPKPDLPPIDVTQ

As a reminder, the IC50 is the concentration that inhibits the measured activity by half. For the compound `O=c1[nH]c(=O)n([C@@H]2O[C@H](CO)[C@@H](O)[C@H]2O)cc1F` [5-FUrd, 5-fluorouridine], in experiment [1], the IC50 worked out at 7 ± 2 µM.
Broadly, the EC50 is the concentration giving half of the maximal effect. Read a low EC50 as higher potency in that assay. Regarding `O=C(Nc1ccc2nc(NC(=O)c3ccco3)sc2c1)c1ccco1` [Compound 1, N,N'-1,3-benzothiazole-2,6-diyldi(2-furamide)], on PfENT1 [2] (setting [8]), the EC50 was found to be 0.8 µM. For the same compound, in [3], the IC50 came to 25.8 ± 1.3 µM and the “IC50 with xanthine as purine source versus hypoxanthine” value is “significantly lower”. For the same compound, at PfENT1 [4], the midpoint of inhibition, the IC50, lay at 0.2 ± 0.1 µM.
Taken in the same sequence, the figures for `O=C(Nc1ccc(-c2nc3ncccc3o2)cc1)c1ccccc1Br` [Compound 2, 2-bromo-N-(4-[1,3]oxazolo[4,5-b]pyridin-2-ylphenyl)benzamide] were 6 ± 1.7 µM, 52.4 ± 5.7 µM, “significantly lower” and 2.1 ± 0.9 µM.
On to `COc1cc(COc2ccc3c(C)cc(=O)oc3c2)cc(OC)c1OC` [Compound 3, 4-methyl-7-[(3,4,5-trimethoxybenzyl)oxy] -2H-chromen-2-one], for which, at PfENT1 [2] (setting [8]), the response was half-maximal at 2.3 ± 0.9 µM (EC50). Further, in the experiment on P. falciparum 3D7 strain, the “parasite stage progression (microscopy)” value is “failed to progress beyond the ring stage”. The “inhibition of [14C]2-deoxyadenosine uptake” value with PfENT4 is recorded as “did not inhibit”. Besides, in [3], the IC50 is 36.2 ± 6 µM and the “IC50 with xanthine as purine source versus hypoxanthine” value is “significantly lower”. Besides, on PfENT1 [4], the IC50 was found to be 0.6 ± 0.1 µM.
Compound `O=C(Nc1ccc(-c2nnc(-c3ccco3)o2)cc1)c1ccco1` [Compound 4, N-{4-[5-(2-furyl)-1,3,4-oxadiazol-2-yl]phenyl}-2-furamide] returned an EC50 at PfENT1 [2] (setting [8]) of 5.7 ± 0.8 µM. Also, the values for the IC50 (in experiment [3]; at PfENT1 [4]) were 15.3 ± 2.7 µM and 1.7 ± 0.4 µM, respectively.
`Cn1cc(C(=O)C(=O)Nc2ccc(C(=O)N3CCCC3)cc2)c2ccccc21` [Compound 5, 2-(1-methyl-1H-indol-3-yl)-2-oxo-N-[4-(pyrrolidin-1-ylcarbonyl)phenyl]acet amide] came in with an EC50 on PfENT1 [2] (setting [8]) of 6.5 ± 1.5 µM. For the same compound, the figures for the IC50 (in [3]; at PfENT1 [4]) were 28.9 ± 2.6 µM and 2 ± 0.01 µM, respectively. Besides, the “IC50 with xanthine as purine source versus hypoxanthine” value in [3] is reported as “significantly lower”.
At PfENT1 [2] (setting [8]), `O=C(Nc1cccc(-c2nc3ncccc3o2)c1)c1cccc(F)c1` [Compound 6, 3-fluoro-N-(3-[1,3]oxazolo[4,5-b]pyridin-2-ylphenyl)benzamide] returned an EC50 of 5.7 ± 1.3 µM. Further, the IC50 in experiment [3] is 38.8 ± 4.9 µM; at PfENT1 [4], 1.1 ± 0.1 µM.
For `COc1ccccc1C(=O)Nc1cccc(-c2nc3ncccc3o2)c1` [Compound 7, 2-methoxy-N-(3-[1,3]oxazolo[4,5-b]pyridin-2-ylphenyl)benzamide] the same measures were 6.4 ± 0.9 µM, 31 ± 0.6 µM and 1.6 ± 0.01 µM.
The compound `Cc1ccccc1/C=C/c1nc2ccccc2c(=O)[nH]1` [Compound 13, 2-[2-(2-methylphenyl)vinyl]-4(3H)-quinazolinone] came in with an EC50 on PfENT1 [2] (setting [8]) of 4.7 ± 2.9 µM. Further, the IC50 in experiment [3] is 2.6 ± 0.2 µM; against PfENT1 [4] it was 0.6 ± 0.1 µM; at PfENT1 [5], 0.0039 ± 0.0016 µM.
Turning to `O=C(Nc1ccc(Cl)c(-c2nc3ncccc3o2)c1)c1cccs1` [Compound 19, N-(4-chloro-3-[1,3]oxazolo[4,5-b]pyridin-2-ylphenyl)-2-thiophenecarboxamide], the EC50 on PfENT1 [2] (setting [8]) was determined as 5.4 ± 0.8 µM. The IC50 stood at 37.4 ± 1.6 µM in experiment [3] and 1.7 ± 0.2 µM against PfENT1 [4].
Regarding `OC[C@H]1O[C@@H](n2cnc3c(O)ncnc32)[C@H](O)[C@@H]1O` [Inosine, inosine, reference compound], the EC50 on PfENT1 [2] (EC50 rescue of fui1Δ::PfENT1-HA-CO strain growth, OD600) turned out to be 3300 ± 200 µM; on PfENT1 [2] (EC50 rescue of fui1Δ::PfENT1-HA-CO strain growth, fluorescence), 5600 ± 2100 µM.
For the compound `OCCN(CCO)c1nc(N2CCCCC2)c2nc(N(CCO)CCO)nc(N3CCCCC3)c2n1` [dipyridamole], the “HTS outcome (positive = growth > four SD above no-growth control)” value on PfENT1 [6] was “not positive”. Besides, on PfENT1 [7], the “block of PfENT1” value is listed as “do not block”.
For `O=[N+]([O-])c1ccc(CSc2ncnc3c2ncn3C2OC(CO)C(O)C2O)cc1` (stereo not shown) [nitrobenzylthioinosine], the “block of PfENT1” value at PfENT1 [7] is reported as “do not block”.

The values above are taken from publication PMC4369170 (ACS chemical biology, 2015).
